Source: patent US11918572B2, “Pharmaceutical compositions for treating pain” (REBEL MEDICINE INC, priority 2022, dated 2024)
Each block holds one compound with its values, some of them ahead of it.

Legend:
[1] = solubility of ropivacaine forms in lipophilic oils; type: physicochemical
[2] = controlled release of drug from the formulation (dialysis bag in PBS sink, UV 272 nm); type: physicochemical
Protocol: (§1) The controlled release of the formulation was evaluated where 0.5 mL of the formulation was placed into a dialysis bag (10 kDa) and submerged in 50 mL sink of phosphate buffered saline (1×; pH 7.4). The samples were placed into a rotating incubator (1 Hz) at 37° C. At designated timepoints, 2 mL of saline was removed and analyzed using ultraviolet visible spectrophotometry (272 nm). The entire sink medium was replaced at each timepoint until drug no longer eluted out of the system.
as §1, with “The release of bupivacaine is shown in a formulation including MCT oil and glycerol monostearate as a structuring agent with and without the presence of an anion to increase hydrophobicity. […] The controlled” for “The controlled”, “buffered saline (lx; pH 7.4).” for “buffered saline (1×; pH 7.4).”

[3] = max solubility of bupivacaine in oil (37° C. overnight, centrifuge, UV 272 nm)
Protocol: The solubility of bupivacaine in a blend of MCT oil and castor oil was studied. […] The max solubility of the oil blends was determined by adding 300 mg of bupivacaine free base into 3 mL of an MCT: castor oil mixture. […] After rotating, samples were spun in a centrifuge at 2000×g for 5 minutes. Next, 30 uL of sample supernatant was taken and dissolved to 1470 uL of ethanol and analyzed using ultraviolet visible spectrophotometry (272 nm).

solubility in lipophilic oils such as medium-chain triglycerides [1]: suitable solubility
SMILES: CCCCC(CC)COC(=O)CC(C(=O)OCC(CC)CCCC)S(=O)(=O)O.CCCN1CCCCC1C(=O)Nc1c(C)cccc1C (stereo not drawn) [ropivacaine docusate]

drug release with specific blends of oil ([2]; MCT oil:castor oil blends): slows
SMILES: CCCCN1CCCCC1C(=O)Nc1c(C)cccc1C (stereo not drawn) [bupivacaine]
drug solubility in castor oil versus MCT [3]: higher drug solubility in castor oil than MCT
solubility of bupivacaine (drug loading) in blends of MCT oil and castor oil ([3]; FIG. 11, 37° C. overnight): drug loading increases with specific blends of oil

solubility in lipophilic oils such as medium-chain triglycerides [1]: poor solubility
SMILES: CCCN1CCCC[C@H]1C(=O)Nc1c(C)cccc1C [ropivacaine]

release of bupivacaine with and without an anion ([2]; FIG. 13, MCT oil and glycerol monostearate, PBS pH 7.4, 37° C.): prolonged
SMILES: CCCCC(CC)COC(=O)CC(C(=O)OCC(CC)CCCC)S(=O)(=O)O.CCCCN1CCCCC1C(=O)Nc1c(C)cccc1C (stereo not drawn) [bupivacaine with docusate, bupivacaine docusate]
